The target in this test is T1, Neuropeptide Y receptor type 2 (Homo sapiens, UniProt P49146).
T1 sequence (P49146 whole entry): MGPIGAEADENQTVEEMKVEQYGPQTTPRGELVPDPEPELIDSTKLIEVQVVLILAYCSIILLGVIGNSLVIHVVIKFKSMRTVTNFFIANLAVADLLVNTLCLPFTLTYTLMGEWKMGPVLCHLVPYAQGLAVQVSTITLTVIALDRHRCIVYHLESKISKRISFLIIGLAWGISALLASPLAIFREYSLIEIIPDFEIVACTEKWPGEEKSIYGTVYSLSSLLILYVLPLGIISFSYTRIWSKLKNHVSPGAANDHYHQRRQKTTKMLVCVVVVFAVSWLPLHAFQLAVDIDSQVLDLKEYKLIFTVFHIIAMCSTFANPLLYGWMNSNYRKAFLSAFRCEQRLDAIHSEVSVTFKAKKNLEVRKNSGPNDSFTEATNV
Kind of test: Binding affinity against SMS-KAN cell membranes endogenously expressing Neuropeptide Y receptor type 2 using [125I]PYY as radioligand.

The IC50 is the concentration that gives 50% inhibition.

Each structure is given as a SMILES string.

For `CC(C(=O)N(CCCN(C)C)c1ccccc1SCc1ccccc1)c1ccccc1` (stereo not drawn), the half-maximal inhibitory concentration (IC50) is 1 µM. In other words, the single-digit micromolar range.

Compound `CN(C)CCCN(C(=O)c1cc2ccccc2s1)c1ccccc1-c1ccccc1` registered a concentration for half-maximal inhibition (IC50) greater than 10 µM.

In the case of `CN(C)CCCN(C(=O)/C=C/c1ccccc1)c1ccccc1SCc1ccccc1`, the half-maximal inhibitory concentration (IC50) turned out to be 10 µM.

Turning to `CN(C)CCCN(C(=O)[C@@H]1C[C@H]1c1ccccc1)c1ccccc1SCc1ccccc1`, the half-inhibitory concentration (IC50) is 3.7 µM.

`CN(C)CCCN(C(=O)c1sc2ccccc2c1Cl)c1ccccc1SCc1ccccc1` yielded a half-inhibitory concentration (IC50) greater than 10 µM.

`CN(C)CCN(C(=O)c1cc2ccccc2s1)c1ccccc1SCc1ccccc1` yielded a concentration for half-maximal inhibition (IC50) greater than 10 µM.

Take `CN(C)CCCN(C(=O)c1cc2ccccc2o1)c1ccccc1SCc1ccccc1`: the concentration for half-maximal inhibition (IC50) was greater than 10 µM.

As for `CN(C)CCCN(C(=O)c1cc2ccccc2s1)c1ccccc1CCc1ccccc1`, the IC50 is greater than 10 µM.

On to `CN(C)CCCCN(C(=O)c1cc2ccccc2s1)c1ccccc1SCc1ccccc1`, for which the IC50 was greater than 10 µM.

As to `CNCCCN(C(=O)c1cc2ccccc2s1)c1ccccc1SCc1ccccc1`, the IC50 was greater than 10 µM.

As for `CCCCc1ccccc1N(CCCN(C)C)C(=O)c1cc2ccccc2s1`, the IC50 stood at 2.2 µM.

In the case of `CN(C)CCCN(C(=O)c1cc2ccccc2s1)c1ccccc1Cc1ccccc1`, the 50% inhibitory concentration (IC50) is greater than 10 µM.

`CN(C)CCCN(C(=O)c1cc2ccccc2s1)c1ccccc1NC(=O)c1ccccc1`: the IC50 was greater than 10 µM.

The record behind these values is ChEMBL document CHEMBL1136181, “Differentially functionalized diamines as novel ligands for the NPY2 receptor” (Bioorg Med Chem Lett, 2003).
